According to patent US20220040150A1, “I[…] ADMI[…] FOR DMT-ASSISTED PSYCHOTHERAPY” (Universitatsspital Basel, priority 2020, published 2022):
Read-outs that look alike come from different tables or passages of the source.

Assays:
[1] = test system: experienced hallucinogen-using volunteers; details: 0.3 mg/kg iv at half-hour intervals 4 times in a morning; cited from earlier work
[2] = target: serotonin 5-HT2A receptor (Homo sapiens, UniProt P28223); details: similar to LSD and psilocybin; cited from earlier work
serotonin transporter = serotonin transporter (Homo sapiens, UniProt P31645); details: in contrast to LSD; cited from earlier work
5-HT1A receptor = target: T1, 5-HT1A receptor (Homo sapiens, UniProt P08908); details: sub-hallucinogenic dose of 0.1 mg/kg DMT, twelve subjects; cited from earlier work
T1 construct: host or cells: human volunteers (in vivo)
T1 sequence (P08908 1-422): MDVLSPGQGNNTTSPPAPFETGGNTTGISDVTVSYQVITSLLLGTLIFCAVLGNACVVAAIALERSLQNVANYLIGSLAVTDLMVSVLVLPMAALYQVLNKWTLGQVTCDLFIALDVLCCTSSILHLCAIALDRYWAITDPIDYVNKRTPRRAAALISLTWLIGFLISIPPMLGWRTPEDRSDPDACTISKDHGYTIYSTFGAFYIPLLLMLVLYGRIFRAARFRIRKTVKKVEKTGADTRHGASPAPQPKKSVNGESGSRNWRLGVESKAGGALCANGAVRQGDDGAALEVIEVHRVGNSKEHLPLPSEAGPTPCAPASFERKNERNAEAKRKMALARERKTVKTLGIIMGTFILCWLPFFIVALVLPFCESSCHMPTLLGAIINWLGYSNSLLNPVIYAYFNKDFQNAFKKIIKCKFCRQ

healthy volunteers = details: cited from earlier work
[3] = DMT plasma concentrations after intravenous bolus, pilot study (Timmermann et al., 2019); type: in vivo; details: human, consistent with measurements of Timmermann 2019 and Strassman 1994, may represent redistribution, read-out: approximate elimination half-life
Method: A more recent pilot study also assessed plasma concentrations of DMT after intravenous bolus administration of 7-20 mg of DMT in a small number of subjects (Timmermann et al., 2019). DMT blood concentrations were approximately 56 ng/mL 2 minutes after administration of 14 mg (corresponding to approximately 0.2 mg/kg) (Timmermann et al., 2019) in line with the aforementioned data by Strassman (Strassman et al., 1994). The measurements from both studies are consistent with an approximate elimination half-life of 5-10 minutes. However, this may represent rapid redistribution and metabolism and may therefore be shorter than the true elimination half-life (see above). The study only used a bolus, so it is different from the present invention. The above descriptions illustrate that there is limited information on the effects of intravenous DMT administration. However, no study has validly determined the elimination half-life of DMT and other pharmacokinetic parameters and this will be done within the current invention to have better and rational basis on dosing.

[4] = target: T2, monoamine oxidase (MAO) A (Homo sapiens, UniProt P21397); details: cited from earlier work
T2 sequence (P21397 1-527): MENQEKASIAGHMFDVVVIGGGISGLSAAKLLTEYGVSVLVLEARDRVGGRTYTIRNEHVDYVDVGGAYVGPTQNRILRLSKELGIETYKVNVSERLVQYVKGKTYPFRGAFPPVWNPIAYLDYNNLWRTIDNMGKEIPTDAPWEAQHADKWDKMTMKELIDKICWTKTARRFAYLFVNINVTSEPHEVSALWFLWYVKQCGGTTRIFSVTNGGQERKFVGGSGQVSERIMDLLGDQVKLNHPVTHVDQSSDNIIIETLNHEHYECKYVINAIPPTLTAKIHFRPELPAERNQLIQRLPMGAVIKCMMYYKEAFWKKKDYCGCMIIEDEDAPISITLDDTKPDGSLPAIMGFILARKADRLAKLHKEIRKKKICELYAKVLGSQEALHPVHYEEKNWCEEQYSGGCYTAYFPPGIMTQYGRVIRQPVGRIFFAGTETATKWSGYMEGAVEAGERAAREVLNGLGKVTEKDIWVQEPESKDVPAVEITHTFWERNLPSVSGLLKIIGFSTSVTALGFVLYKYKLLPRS

[5] = cited from earlier work
[6] = 25 mg (0.3 mg/kg) bolus over 30 seconds; cited from earlier work
[7] = 0.3 mg/kg iv, cited from earlier work
[8] = test system: healthy subjects with previous hallucinogen experience; details: cited from earlier work
[9] = test system: healthy subjects with previous hallucinogen experience; details: cited from earlier work; remark: listed apart in the source

Sequence of serotonin 5-HT2A receptor (P28223 whole entry): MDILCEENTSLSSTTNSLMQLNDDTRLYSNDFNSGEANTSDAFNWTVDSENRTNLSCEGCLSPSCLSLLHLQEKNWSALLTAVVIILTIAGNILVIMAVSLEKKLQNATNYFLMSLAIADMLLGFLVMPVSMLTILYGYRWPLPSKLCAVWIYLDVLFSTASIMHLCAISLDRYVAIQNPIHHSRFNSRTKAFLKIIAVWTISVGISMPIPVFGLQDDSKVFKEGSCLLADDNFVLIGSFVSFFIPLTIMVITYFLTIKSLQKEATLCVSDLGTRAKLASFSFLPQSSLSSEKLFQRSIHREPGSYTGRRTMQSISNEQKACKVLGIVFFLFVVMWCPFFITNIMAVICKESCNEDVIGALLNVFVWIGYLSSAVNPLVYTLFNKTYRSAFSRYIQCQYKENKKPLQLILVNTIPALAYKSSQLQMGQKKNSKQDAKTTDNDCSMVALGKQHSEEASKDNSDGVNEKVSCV
Sequence of serotonin transporter (P31645 whole entry): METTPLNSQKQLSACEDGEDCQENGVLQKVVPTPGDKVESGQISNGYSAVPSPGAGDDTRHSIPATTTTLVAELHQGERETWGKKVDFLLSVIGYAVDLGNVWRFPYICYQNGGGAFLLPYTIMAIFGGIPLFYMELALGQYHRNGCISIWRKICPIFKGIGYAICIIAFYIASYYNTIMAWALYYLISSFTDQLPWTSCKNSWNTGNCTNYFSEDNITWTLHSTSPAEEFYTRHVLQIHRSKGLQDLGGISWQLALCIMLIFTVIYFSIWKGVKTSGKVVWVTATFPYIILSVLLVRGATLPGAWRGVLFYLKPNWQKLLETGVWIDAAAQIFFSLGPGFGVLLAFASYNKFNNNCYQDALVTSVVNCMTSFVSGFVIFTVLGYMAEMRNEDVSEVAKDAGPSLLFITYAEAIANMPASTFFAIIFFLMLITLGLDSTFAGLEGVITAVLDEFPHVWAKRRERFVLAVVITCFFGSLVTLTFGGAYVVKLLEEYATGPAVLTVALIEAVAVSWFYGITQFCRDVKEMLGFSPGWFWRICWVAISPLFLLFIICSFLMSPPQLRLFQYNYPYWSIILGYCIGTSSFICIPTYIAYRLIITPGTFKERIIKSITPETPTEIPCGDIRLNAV

CN(C)CCc1c[nH]c2ccccc12 [DMT, N,N-dimethyltryptamine]
Tolerance to the subjective effects of DMT [1]: did not occur | interaction with the serotonin 5-HT2A receptor [2]: interacts | interaction with the serotonin transporter (serotonin transporter): interacts | enhancement of DMT effects by pindolol pre-treatment (5-HT1A receptor): two to three times | time within which subjective effects subsided (healthy volunteers; after stopping infusion): ≤ 20 min | subjects who stopped after the first DMT dose due to adverse responses (healthy volunteers; among the 15 subjects): 3 | persons reporting visual hallucinations (healthy volunteers; high dose): all participants | time for adverse effects to vanish from stopping the infusion (healthy volunteers; in vivo): within a few minutes | persons reporting visual hallucinations (healthy volunteers; low dose, 15 healthy volunteers): seven | lasting complaints at interviews (healthy volunteers; seven days and 12 months after the experiments): no lasting complaints | subjects reporting tiredness and headache in the evening of the experiment (healthy volunteers; subjects who received DMT): 10 out of 13 | half-life [3]: 5 to 10 min | metabolism by monoamine oxidase (MAO) A [4]: rapidly metabolized | duration of action ([5]; administered parenterally): less than 20 min | activity when administered orally ([5]; oral, without MAO inhibition): inactive | effect site concentration (simulated) [6]: over 100 ng/mL | initial plasma concentration spike (simulated) [6]: over 200 ng/mL | blood DMT levels ([7]; after 2 minutes): ~70 ng/mL | blood DMT levels ([7]; after 5 minutes): ~50 ng/mL | blood DMT levels ([7]; after 10 minutes): ~30 ng/mL | blood DMT levels ([7]; after 15 minutes): ~18 ng/mL | threshold dose for hallucinogenic effects ([8]; iv bolus): 0.2 mg/kg | time to peak of effects after injection ([8]; iv bolus): ≤ 2 min | time within which effects resolved ([8]; iv bolus): 20 to 30 min | hallucinogenic effect ([8]; lower doses (0.05, 0.1 mg/kg) iv bolus): not hallucinogenic | hallucinogenic effect ([8]; two higher doses of 0.2 and 0.4 mg/kg iv bolus): fully hallucinogenic | Average heart rate ([9]; at 2 minutes): 100 beats/min | mean arterial blood pressure ([9]; at 2 minutes): 108 mm Hg | blood pressure, heart rate, pupil size, body core temperature, blood levels of ACTH, cortisol, PRL, β-endorphin and growth hormone ([9]; iv bolus): increased
